Key:
[1] = test system: MHCC97H cells; assay: Assay for inhibiting the proliferation of MHCC97H cells (CCK-8); format: cell-based; conditions: Homo sapiens
Protocol: (§1) In particular, the method of the assay of small molecular compounds for inhibiting cell proliferation is as follows: • 1. Cells cultured to a logarithmic growth phase (adherent cells need to be digested with trypsin and neutralized) were taken, pipetted evenly, transferred to a 15 mL centrifuge tube, and centrifuged at 1000 rpm at room temperature for 4 minutes; • 2. The supernatant was discarded; 5 mL of complete medium was added and pipetted evenly; 10 μL of cell suspension was taken out, mixed well with 10 μL of 0.4% trypan blue, and counted under a cell counter; the proportion of living cells was ensured to be above 90%; • 3. 80 μL of cell suspension per well was seeded into a 96-well plate according to the conditions shown in the attached table, and cultured overnight; in the outer 36 wells of the 96-well plate, no cells were added but only sterile water was added; only the inner 60 wells were used for cell assay and control; • 4. 5×compound dilution: the compounds were serially diluted 3-fold to obtain a total of 9 concentrations; 80-fold overall dilution was completed with complete medium, the resulting concentration was 5 times the final drug concentration, and DMSO concentration was 1.25%; • 5. 20 μL of the corresponding compounds with different concentration gradients were added to each well of assay wells of the 96-well plate; 20 μL of complete medium was added to positive and negative control wells and shaken well; and the final concentration of DMSO in each well was 0.25%; • 6. After 72 hours of incubation, 10 μL of CCK-8 reagent was added to each well and further incubated at 37° C. for 1-2 hours; and the OD value was read at 450 nm; • 7. Cell survival rate (%)=[(As−Ab)/(Ac−Ab)]*100% • As: Assay well (medium containing cells, CCK-8, compound), • Ac: Control well (medium containing cells, CCK-8), • Ab: Blank well (CCK-8, medium without cell and compound), • 8. The values were imported into Graphpad Prism 5 software for IC50 calculation.

[2] = target: c-MET kinase (Homo sapiens (Human), UniProt P08581); assay: Assay of small molecular compounds for inhibiting the activity of c-MET kinase (LANCE TR-FRET); format: biochemical; conditions: read-out: CMET IC50
c-MET kinase, sequence (P08581 25-1390): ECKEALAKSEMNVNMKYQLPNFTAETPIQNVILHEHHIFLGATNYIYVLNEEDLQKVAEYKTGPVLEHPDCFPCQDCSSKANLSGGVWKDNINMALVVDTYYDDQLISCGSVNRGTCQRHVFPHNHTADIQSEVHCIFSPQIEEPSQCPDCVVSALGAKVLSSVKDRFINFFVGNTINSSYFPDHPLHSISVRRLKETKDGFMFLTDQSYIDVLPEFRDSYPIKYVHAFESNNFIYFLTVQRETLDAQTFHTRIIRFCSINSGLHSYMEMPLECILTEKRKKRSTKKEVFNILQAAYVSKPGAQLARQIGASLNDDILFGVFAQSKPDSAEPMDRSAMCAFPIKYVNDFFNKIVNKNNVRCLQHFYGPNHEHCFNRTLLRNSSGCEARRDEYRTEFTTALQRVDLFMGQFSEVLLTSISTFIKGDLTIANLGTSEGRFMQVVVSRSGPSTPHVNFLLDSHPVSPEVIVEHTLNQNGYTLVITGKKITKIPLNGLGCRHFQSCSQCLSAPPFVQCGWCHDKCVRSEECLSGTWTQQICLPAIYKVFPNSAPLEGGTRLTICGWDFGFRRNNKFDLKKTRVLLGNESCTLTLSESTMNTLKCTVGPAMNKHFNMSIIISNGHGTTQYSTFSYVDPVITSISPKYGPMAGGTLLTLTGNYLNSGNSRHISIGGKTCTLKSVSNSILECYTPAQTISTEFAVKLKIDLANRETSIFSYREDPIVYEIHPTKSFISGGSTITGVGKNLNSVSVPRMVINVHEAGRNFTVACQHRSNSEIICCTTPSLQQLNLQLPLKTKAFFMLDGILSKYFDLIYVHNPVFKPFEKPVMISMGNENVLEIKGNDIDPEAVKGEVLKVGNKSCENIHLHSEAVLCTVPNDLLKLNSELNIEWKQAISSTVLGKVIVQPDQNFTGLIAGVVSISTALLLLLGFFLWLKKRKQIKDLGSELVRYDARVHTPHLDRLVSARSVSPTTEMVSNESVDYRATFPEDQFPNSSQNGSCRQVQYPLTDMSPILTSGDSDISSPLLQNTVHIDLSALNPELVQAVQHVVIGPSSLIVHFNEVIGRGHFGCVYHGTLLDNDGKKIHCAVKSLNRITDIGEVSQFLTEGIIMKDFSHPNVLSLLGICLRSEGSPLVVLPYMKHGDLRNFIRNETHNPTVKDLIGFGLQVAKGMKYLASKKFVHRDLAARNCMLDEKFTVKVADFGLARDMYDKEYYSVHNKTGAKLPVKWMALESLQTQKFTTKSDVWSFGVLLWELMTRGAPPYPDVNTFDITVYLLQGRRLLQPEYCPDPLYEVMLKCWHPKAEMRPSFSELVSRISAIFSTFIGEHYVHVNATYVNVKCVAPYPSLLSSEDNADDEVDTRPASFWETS
In short: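 Eleven final concentrations from 2500 nM down to 0.042 nM, in 4% DMSO, were tested against human c-MET (2× stock 2 nM), with compound and enzyme premixed for 5 min. The phosphorylation reaction used 4× stock of 400 nM ULight-JAK-1 peptide and 40 μM ATP for 60 min at room temperature, then stop and detection steps. TR-FRET percent inhibition against positive and negative controls gave the IC50.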

[3] = test system: Ba/F3-AXL cells; assay: Assay for inhibiting the proliferation of Ba/F3-AXL cells (CCK-8); format: cell-based; conditions: 72 hours of incubation, medium with 100 ng/mL hGas6, CCK-8
Protocol: The values were then imported into Graphpad Prism 5 software for curve fitting, and IC50 was calculated.

[4] = test system: EBC1 cells; assay: Assay for inhibiting the proliferation of EBC1 cells (CCK-8); format: cell-based; conditions: Homo sapiens, EBC-1
Protocol: as §1

[5] = test system: Ba/F3 LMNA-NTRK1 cells; assay: Assay for inhibiting the proliferation of Ba/F3 LMNA-NTRK1 cells (CCK-8); format: cell-based; conditions: Mus musculus, BaF3
In short: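 Viability was read as absorbance at 450 nm following 1–2 h CCK-8 incubation at 37 °C, relative to control and blank wells.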

SMILES: O=C(Nc1ccc(Oc2ncnc3cc(OCCCN4CCOCC4)c4c(c23)OCCO4)c(F)c1)c1cccn(-c2ccc(F)cc2)c1=O [Example 4, N-(3-fluoro-4-((5-(3-morpholinopropoxy)-2,3-dihydro-[1,4]dioxino[2,3-f]quinazolin-10-yl)oxy)phenyl)-1-(4-fluorophenyl)-2-oxo-1,2-dihydropyridine-3-carboxamide]
- IC50 [1]: ≤ 0.05 µM
- IC50 [2]: ≤ 0.05 µM
- IC50 [3]: < 0.05 µM
- IC50 [4]: ≤ 0.05 µM

SMILES: COc1ccn(-c2ccc(F)cc2)c(=O)c1C(=O)Nc1ccc(Oc2ncnc3cc(OCCCN4CCOCC4)c4c(c23)OCCO4)c(F)c1 [Example 5, N-(3-fluoro-4-((5-(3-morpholinopropoxy)-2,3-dihydro-[1,4]dioxino[2,3-f]quinazolin-10-yl)oxy)phenyl)-1-(4-fluorophenyl)-4-methoxy-2-oxo-1,2-dihydropyridine-3-carboxamide]
- IC50 [1]: 0.05 to 0.2 µM
- IC50 [2]: ≤ 0.05 µM
- IC50 [3]: < 0.05 µM
- IC50 [4]: ≤ 0.05 µM

SMILES: CCOc1ccn(-c2ccc(F)cc2)c(=O)c1C(=O)Nc1ccc(Oc2ncnc3cc(OCCCN4CCOCC4)c4c(c23)OCCO4)c(F)c1 [Example 6, N-(3-fluoro-4-((5-(3-morpholinopropoxy)-2,3-dihydro-[1,4]dioxino[2,3-f]quinazolin-10-yl)oxy)phenyl)-1-(4-fluorophenyl)-4-ethoxy-2-oxo-1,2-dihydropyridine-3-carboxamide]
- IC50 [1]: 0.05 to 0.2 µM
- IC50 [2]: ≤ 0.05 µM
- IC50 [5]: < 0.05 µM
- IC50 [4]: ≤ 0.05 µM

SMILES: COc1cc2nccc(Oc3ccc(NC(=O)c4cn(C)c(=O)n(-c5ccc(F)cc5)c4=O)cc3F)c2c2c1OCCO2 [Example 13, N-(3-fluoro-4-((5-methoxy-2,3-dihydro-[1,4]dioxino[2,3-f]quinolin-10-yl)oxy)phenyl)-3-(4-fluorophenyl)-1-methyl-2,4-dioxo-1,2,3,4-tetrahydropyrimidine-5-carboxamide]
- IC50 [1]: 0.05 to 0.2 µM
- IC50 [2]: ≤ 0.05 µM
- IC50 [3]: < 0.05 µM
- IC50 [5]: < 0.05 µM
- IC50 [4]: 0.05 to 0.2 µM

SMILES: COc1cc2nccc(Oc3ccc(NC(=O)c4cccn(-c5ccc(F)cc5)c4=O)cc3F)c2c2c1OCCO2 [Example 17, N-(3-fluoro-4-((5-methoxy-2,3-dihydro-[1,4]dioxino[2,3-f]quinolin-10-yl)oxy)phenyl)-1-(4-fluorophenyl)-2-oxo-1,2-dihydropyridine-3-carboxamide]
- IC50 [1]: ≤ 0.05 µM
- IC50 [2]: ≤ 0.05 µM
- IC50 [3]: < 0.05 µM
- IC50 [5]: < 0.05 µM
- IC50 [4]: ≤ 0.05 µM

SMILES: COc1cc2nccc(Oc3ccc(NC(=O)c4c(OC)ccn(-c5ccc(F)cc5)c4=O)cc3F)c2c2c1OCCO2 [Example 18, N-(3-fluoro-4-((5-methoxy-2,3-dihydro-[1,4]dioxino[2,3-f]quinolin-10-yl)oxy)phenyl)-1-(4-fluorophenyl)-4-methoxy-2-oxo-1,2-dihydropyridine-3-carboxamide]
- IC50 [1]: ≤ 0.05 µM
- IC50 [2]: ≤ 0.05 µM
- IC50 [3]: < 0.05 µM
- IC50 [5]: < 0.05 µM
- IC50 [4]: ≤ 0.05 µM

SMILES: CCOc1ccn(-c2ccc(F)cc2)c(=O)c1C(=O)Nc1ccc(Oc2ccnc3cc(OC)c4c(c23)OCCO4)c(F)c1 [Example 19, N-(3-fluoro-4-((5-methoxy-2,3-dihydro-[1,4]dioxino[2,3-f]quinolin-10-yl)oxy)phenyl)-1-(4-fluorophenyl)-4-ethoxy-2-oxo-1,2-dihydropyridine-3-carboxamide]
- IC50 [1]: ≤ 0.05 µM
- IC50 [2]: ≤ 0.05 µM
- IC50 [3]: < 0.05 µM
- IC50 [5]: < 0.05 µM
- IC50 [4]: ≤ 0.05 µM

SMILES: COc1ccn(-c2ccc(F)cc2)c(=O)c1C(=O)Nc1ccc(Oc2ccnc3cc(OCCCN4CCOCC4)c4c(c23)OCCO4)c(F)c1 [Example 21, N-(3-fluoro-4-((5-(3-morpholinopropoxy)-2,3-dihydro-[1,4]dioxino[2,3-f]quinolin-10-yl)oxy)phenyl)-1-(4-fluorophenyl)-4-methoxy-2-oxo-1,2-dihydropyridine-3-carboxamide]
- IC50 [1]: ≤ 0.05 µM
- IC50 [2]: ≤ 0.05 µM
- IC50 [3]: < 0.05 µM
- IC50 [5]: < 0.05 µM
- IC50 [4]: ≤ 0.05 µM

SMILES: COc1cc2nccc(Oc3ccc(NC(=O)c4cn(CCCO)c(=O)n(-c5ccc(F)cc5)c4=O)cc3F)c2c2c1OCCO2 [Example 99, N-(3-fluoro-4-((5-methoxy-2,3-dihydro-[1,4]dioxino[2,3-f]quinolin-10-yl)oxy)phenyl)-3-(4-fluorophenyl)-1-(3-hydroxypropyl)-2,4-dioxo-1,2,3,4-tetrahydropyrimidine-5-carboxamide]
- IC50 [1]: 0.05 to 0.2 µM
- IC50 [2]: ≤ 0.05 µM
- IC50 [3]: < 0.05 µM
- IC50 [4]: ≤ 0.05 µM

SMILES: C=CCn1cc(C(=O)Nc2ccc(Oc3ccnc4cc(OC)c5c(c34)OCCO5)c(F)c2)c(=O)n(-c2ccc(F)cc2)c1=O [Example 100, N-(3-fluoro-4-((5-methoxy-2,3-dihydro-[1,4]dioxino[2,3-f]quinolin-10-yl)oxy)phenyl)-3-(4-fluorophenyl)-1-allyl-2,4-dioxo-1,2,3,4-tetrahydropyrimidine-5-carboxamide]
- IC50 [1]: ≤ 0.05 µM
- IC50 [2]: ≤ 0.05 µM
- IC50 [3]: < 0.05 µM
- IC50 [4]: ≤ 0.05 µM

SMILES: COc1cc2nccc(Oc3ccc(NC(=O)c4cn(CCF)c(=O)n(-c5ccc(F)cc5)c4=O)cc3F)c2c2c1OCCO2 [Example 101, N-(3-fluoro-4-((5-methoxy-2,3-dihydro-[1,4]dioxino[2,3-f]quinolin-10-yl)oxy)phenyl)-3-(4-fluorophenyl)-1-(2-fluoroethyl)-2,4-dioxo-1,2,3,4-tetrahydropyrimidine-5-carboxamide]
- IC50 [1]: ≤ 0.05 µM
- IC50 [2]: ≤ 0.05 µM
- IC50 [3]: < 0.05 µM
- IC50 [4]: ≤ 0.05 µM

SMILES: CC(C)n1cc(C(=O)Nc2ccc(Oc3ccnc4cc(OCC5(N)CC5)c5c(c34)OCCO5)c(F)c2)c(=O)n(-c2ccc(F)cc2)c1=O [Example 106, N-(3-fluoro-4-((5-((1-aminocyclopropyl)methoxy)-2,3-dihydro-[1,4]dioxino[2,3-f]quinolin-1 0-yl)oxy)phenyl)-3-(4-fluorophenyl)-1-isopropyl-2,4-dioxo-1,2,3,4-tetrahydropyrimidine-5-carboxamide]
- IC50 [1]: 0.05 to 0.2 µM
- IC50 [2]: 0.05 to 0.5 µM
- IC50 [3]: < 0.05 µM
- IC50 [4]: ≤ 0.05 µM

SMILES: CCOc1ccn(-c2cccc(F)c2)c(=O)c1C(=O)Nc1ccc(Oc2ccnc3cc(OC)c4c(c23)OCCO4)c(F)c1 [Example 114, N-(3-fluoro-4-((5-methoxy-2,3-dihydro-[1,4]dioxino[2,3-f]quinolin-10-yl)oxy)phenyl)-2-oxo-4-ethoxy-1-(3-fluorophenyl)-1,2-dihydropyridin-3-carboxamide]
- IC50 [1]: 0.05 to 0.2 µM
- IC50 [2]: ≤ 0.05 µM
- IC50 [3]: < 0.05 µM
- IC50 [4]: 0.05 to 0.2 µM

SMILES: COc1ccn(-c2ccc(F)cc2)c(=O)c1C(=O)Nc1ccc(Oc2ccnc3cc(OCCCC#N)c4c(c23)OCCO4)cc1Cl [Example 132, N-(2-chloro-4-((5-(3-cyanopropoxy)-2,3-dihydro-[1,4]dioxino[2,3-f]quinolin-10-yl)oxy)phenyl)-1-(4-fluorophenyl)-4-methoxy-2-oxo-1,2-dihydropyridine-3-carboxamide]
- IC50 [2]: ≤ 0.05 µM
- IC50 [3]: < 0.05 µM
- IC50 [5]: < 0.05 µM

SMILES: CCOc1ccn(-c2ccc(F)cc2)c(=O)c1C(=O)Nc1ccc(Oc2ccnc3cc(OCCCC#N)c4c(c23)OCCO4)cc1Cl [Example 134, N-(2-chloro-4-((5-(3-cyanopropoxy)-2,3-dihydro-[1,4]dioxino[2,3-f]quinolin-10-yl)oxy)phenyl)-1-(4-fluorophenyl)-4-ethoxy-2-oxo-1,2-dihydropyridine-3-carboxamide]
- IC50 [2]: ≤ 0.05 µM
- IC50 [3]: < 0.05 µM
- IC50 [5]: < 0.05 µM

SMILES: CCOc1ccn(-c2ccc(F)cc2)c(=O)c1C(=O)Nc1ccc(Oc2ccnc3cc(OCC(C)(C)O)c4c(c23)OCCO4)cc1Cl [Example 142, N-(2-chloro-4-((5-(2-hydroxy-2-methylpropoxy)-2,3-dihydro-[1,4]dioxino[2,3-f]quinolin-10-yl)oxy)phenyl)-1-(4-fluorophenyl)-4-ethoxy-2-oxo-1,2-dihydropyridine-3-carboxamide]
- IC50 [2]: ≤ 0.05 µM
- IC50 [3]: < 0.05 µM
- IC50 [5]: < 0.05 µM

Source: US12202835B2, “Substituted aromatic ring-linked dioxinoquinazolines and dioxinoquinolines as kinase inhibitors” (BEIJING SCITECH-MQ PHARMACEUTICALS LIMITED, priority 2018, dated 2025)
